{"source": "patent US20240376163A1", "about": "“PEPTIDE FOR INHIBITING CALCINEURIN AND USE THEREOF” (Seoul National University R&DB Foundation, priority 2023, published 2024)", "tested_on": "Jurkat T cells", "assay": "mRNA sequencing of activated Jurkat T cells", "assay_type": "cell-based, human", "conditions": "Jurkat T cells, P + I", "data": [{"molecule": "C=CC[C@@H]1/C=C(\\C)C[C@H](C)C[C@H](OC)[C@H]2O[C@@](O)(C(=O)C(=O)N3CCCC[C@H]3C(=O)O[C@H](/C(C)=C/[C@@H]3CC[C@@H](O)[C@H](OC)C3)[C@H](C)[C@@H](O)CC1=O)[C@H](C)C[C@@H]2OC", "note": "[FK506, Tacrolimus, reference compound]", "values": [{"measurement": "ECE1 FPKM", "value": 20.046, "unit": "FPKM"}, {"measurement": "EFHD2 FPKM", "value": 180.233, "unit": "FPKM"}, {"measurement": "EGR1 FPKM", "value": 218.444, "unit": "FPKM"}, {"measurement": "EGR2 FPKM", "value": 11.435, "unit": "FPKM"}, {"measurement": "EHBP1L1 FPKM", "value": 7.073, "unit": "FPKM"}, {"measurement": "EMP1 FPKM", "value": 4.613, "unit": "FPKM"}, {"measurement": "ETS1 FPKM", "value": 50.032, "unit": "FPKM"}, {"measurement": "FADS2 FPKM", "value": 67.903, "unit": "FPKM"}, {"measurement": "FAM64A FPKM", "value": 7.456, "unit": "FPKM"}, {"measurement": "FAT1 FPKM", "value": 13.036, "unit": "FPKM"}, {"measurement": "FBLN2 FPKM", "value": 3.348, "unit": "FPKM"}, {"measurement": "FKBP5 FPKM", "value": 8.687, "unit": "FPKM"}, {"measurement": "FLI1 FPKM", "value": 13.241, "unit": "FPKM"}, {"measurement": "FOSL1 FPKM", "value": 10.499, "unit": "FPKM"}, {"measurement": "FOSL2 FPKM", "value": 2.204, "unit": "FPKM"}, {"measurement": "FXYD5 FPKM", "value": 41.346, "unit": "FPKM"}, {"measurement": "FYN FPKM", "value": 16.523, "unit": "FPKM"}, {"measurement": "GAD1 FPKM", "value": 2.246, "unit": "FPKM"}, {"measurement": "GFOD1 FPKM", "value": 4.187, "unit": "FPKM"}, {"measurement": "GFRA1 FPKM", "value": 0.991, "unit": "FPKM"}, {"measurement": "GKAP1 FPKM", "value": 2.692, "unit": "FPKM"}, {"measurement": "GLRB FPKM", "value": 1.62, "unit": "FPKM"}, {"measurement": "GLRX FPKM", "value": 25.315, "unit": "FPKM"}, {"measurement": "GNG4 FPKM", "value": 5.365, "unit": "FPKM"}, {"measurement": "GPC2 FPKM", "value": 5.785, "unit": "FPKM"}, {"measurement": "GPR17 FPKM", "value": 0.258, "unit": "FPKM"}, {"measurement": "GPR68 FPKM", "value": 8.916, "unit": "FPKM"}, {"measurement": "GSE1 FPKM", "value": 17.37, "unit": "FPKM"}, {"measurement": "GTDC1 FPKM", "value": 4.629, "unit": "FPKM"}, {"measurement": "GXYLT2 FPKM", "value": 5.443, "unit": "FPKM"}, {"measurement": "GZMB FPKM", "value": 513.528, "unit": "FPKM"}, {"measurement": "HCAR1 FPKM", "value": 7.167, "unit": "FPKM"}, {"measurement": "HIVEP3 FPKM", "value": 20.041, "unit": "FPKM"}, {"measurement": "HLA-A FPKM", "value": 181.069, "unit": "FPKM"}, {"measurement": "HLA-B FPKM", "value": 116.079, "unit": "FPKM"}, {"measurement": "HPGD FPKM", "value": 6.064, "unit": "FPKM"}, {"measurement": "IFIT3 FPKM", "value": 6.495, "unit": "FPKM"}, {"measurement": "IKZF2 FPKM", "value": 8.561, "unit": "FPKM"}, {"measurement": "IL2 FPKM", "value": 0.287, "unit": "FPKM"}, {"measurement": "IL4R FPKM", "value": 9.842, "unit": "FPKM"}, {"measurement": "IL10RA FPKM", "value": 2.828, "unit": "FPKM"}, {"measurement": "IL15 FPKM", "value": 2.654, "unit": "FPKM"}, {"measurement": "IL15RA FPKM", "value": 5.979, "unit": "FPKM"}, {"measurement": "IL21R FPKM", "value": 2.244, "unit": "FPKM"}, {"measurement": "IL21R-AS1 FPKM", "value": 1.927, "unit": "FPKM"}, {"measurement": "IL27RA FPKM", "value": 10.817, "unit": "FPKM"}, {"measurement": "IQCJ-SCHIP1 FPKM", "value": 1.657, "unit": "FPKM"}, {"measurement": "IQGAP2 FPKM", "value": 4.857, "unit": "FPKM"}, {"measurement": "IRF1 FPKM", "value": 141.607, "unit": "FPKM"}, {"measurement": "IRF2 FPKM", "value": 34.99, "unit": "FPKM"}, {"measurement": "IRF4 FPKM", "value": 0.423, "unit": "FPKM"}, {"measurement": "IRF7 FPKM", "value": 21.167, "unit": "FPKM"}, {"measurement": "ITGA4 FPKM", "value": 39.099, "unit": "FPKM"}, {"measurement": "ITGAL FPKM", "value": 10.212, "unit": "FPKM"}, {"measurement": "ITK FPKM", "value": 58.558, "unit": "FPKM"}, {"measurement": "JAK2 FPKM", "value": 5.248, "unit": "FPKM"}, {"measurement": "KCNK1 FPKM", "value": 10.967, "unit": "FPKM"}, {"measurement": "KIAA0101 FPKM", "value": 21.727, "unit": "FPKM"}, {"measurement": "KIAA0247 FPKM", "value": 8.032, "unit": "FPKM"}, {"measurement": "KIR3DX1 FPKM", "value": 3.048, "unit": "FPKM"}, {"measurement": "KLF10 FPKM", "value": 25.627, "unit": "FPKM"}, {"measurement": "KLF12 FPKM", "value": 6.506, "unit": "FPKM"}, {"measurement": "KREMEN1 FPKM", "value": 3.122, "unit": "FPKM"}, {"measurement": "LAIR1 FPKM", "value": 8.298, "unit": "FPKM"}, {"measurement": "LDLRAD4 FPKM", "value": 6.21, "unit": "FPKM"}, {"measurement": "LEF1-AS1 FPKM", "value": 3.747, "unit": "FPKM"}, {"measurement": "LEF1 FPKM", "value": 74.102, "unit": "FPKM"}, {"measurement": "LGMN FPKM", "value": 1.42, "unit": "FPKM"}, {"measurement": "LIF FPKM", "value": 0.143, "unit": "FPKM"}, {"measurement": "LIMS2 FPKM", "value": 4.122, "unit": "FPKM"}, {"measurement": "LINC00659 FPKM", "value": 10.239, "unit": "FPKM"}, {"measurement": "LINC01260 FPKM", "value": 7.672, "unit": "FPKM"}, {"measurement": "LMNA FPKM", "value": 4.62, "unit": "FPKM"}, {"measurement": "LMO1 FPKM", "value": 1.094, "unit": "FPKM"}, {"measurement": "LOC653712 FPKM", "value": 4.163, "unit": "FPKM"}, {"measurement": "LOC100506688 FPKM", "value": 1.625, "unit": "FPKM"}, {"measurement": "LOC101926963 FPKM", "value": 4.541, "unit": "FPKM"}, {"measurement": "LOC101927497 FPKM", "value": 9.413, "unit": "FPKM"}, {"measurement": "LPAR6 FPKM", "value": 8.449, "unit": "FPKM"}, {"measurement": "LRRC8C FPKM", "value": 10.058, "unit": "FPKM"}, {"measurement": "LRRC20 FPKM", "value": 3.843, "unit": "FPKM"}, {"measurement": "LTBP4 FPKM", "value": 8.427, "unit": "FPKM"}, {"measurement": "LUCATI FPKM", "value": 12.516, "unit": "FPKM"}, {"measurement": "MAFF FPKM", "value": 16.977, "unit": "FPKM"}, {"measurement": "MAGEA4 FPKM", "value": 3.908, "unit": "FPKM"}, {"measurement": "MAL FPKM", "value": 2.664, "unit": "FPKM"}, {"measurement": "MAMLD1 FPKM", "value": 5.995, "unit": "FPKM"}, {"measurement": "MAP3K7CL FPKM", "value": 2.247, "unit": "FPKM"}, {"measurement": "MAST4 FPKM", "value": 3.498, "unit": "FPKM"}, {"measurement": "MAZ FPKM", "value": 112.102, "unit": "FPKM"}, {"measurement": "MCM2 FPKM", "value": 22.07, "unit": "FPKM"}, {"measurement": "MCTP2 FPKM", "value": 5.326, "unit": "FPKM"}, {"measurement": "METRN FPKM", "value": 1.779, "unit": "FPKM"}, {"measurement": "MFAP4 FPKM", "value": 0.663, "unit": "FPKM"}, {"measurement": "MGAT4A FPKM", "value": 8.906, "unit": "FPKM"}, {"measurement": "MICAL2 FPKM", "value": 1.763, "unit": "FPKM"}, {"measurement": "MIR22HG FPKM", "value": 9.248, "unit": "FPKM"}, {"measurement": "MIR3652 FPKM", "value": 547.182, "unit": "FPKM"}, {"measurement": "MIR6775 FPKM", "value": 19.643, "unit": "FPKM"}, {"measurement": "MIR6821 FPKM", "value": 13.626, "unit": "FPKM"}]}]}
